Columns and labels:
[1] = Drug metabolism in human liver S9 fractions assessed as formation of 3-methyl-4-(2-(piperazin-1-yl)phenylthio)benzoic acid at 8 to 50 uM after 20 mins by HPLC/MS-MS analysis in presence of NADPH regenerating system with NAD+; format: ADME, subcellular, Liver S9 fraction; details: s9, 20 min
[2] = Drug metabolism in human liver S9 fractions assessed as formation of 3-methyl-4-(2-(piperazin-1-yl)phenylthio)benzoic acid at 8 to 50 uM after 20 mins by HPLC/MS-MS analysis in absence of NADPH regenerating system with NAD+; format: ADME, tissue-based; details: s9, 20 min
[3] = Drug metabolism in pooled human liver S9 fractions assessed as formation of 3-methyl-4-(2-(piperazin-1-yl)phenylthio)benzoic acid at 2 to 50 uM after 20 mins by HPLC/MS-MS analysis in presence of NADPH regenerating system with NAD+ and xanthine oxidase inhibitor allopurinol; format: ADME, subcellular, Liver S9 fraction; details: s9, 20 min
[4] = test system: Liver microsome; assay: Drug metabolism in pooled human liver microsomes assessed as formation of 3-methyl-4-(2-(piperazin-1-yl)phenylthio)benzoic acid after 20 mins by Michaelis-Menten plot analysis in presence of NADPH regenerating system with NADP+; format: ADME; details: read-out: Km(app)
[5] = test system: Liver microsome; assay: Drug metabolism in pooled human liver microsomes assessed as formation of 3-methyl-4-(2-(piperazin-1-yl)phenylthio)benzoic acid per mg of protein after 20 mins by Michaelis-Menten plot analysis in presence of NADPH regenerating system with NADP+; format: ADME
[6] = test system: Liver microsome; assay: Intrinsic clearance in pooled human liver microsomes assessed as Vmax(app)/Km(app) for formation of 3-methyl-4-(2-(piperazin-1-yl)phenylthio)benzoic acid per mg of protein after 20 mins by Michaelis-Menten plot analysis in presence of NADPH regenerating system with NADP+; format: ADME
[7] = Drug metabolism in pooled human liver S9 fractions assessed as formation of 3-methyl-4-(2-(piperazin-1-yl)phenylthio)benzoic acid after 20 mins by Michaelis-Menten plot analysis in presence of NADPH regenerating system with NADP+; format: ADME, subcellular, Liver S9 fraction; details: s9, 20 min, read-out: Km(app)
[8] = Drug metabolism in pooled human liver S9 fractions assessed as formation of 3-methyl-4-(2-(piperazin-1-yl)phenylthio)benzoic acid per mg of protein after 20 mins by Michaelis-Menten plot analysis in presence of NADPH regenerating system with NADP+; format: ADME, subcellular, Liver S9 fraction; details: s9, 20 min
[9] = Intrinsic clearance in pooled human liver S9 fractions assessed as Vmax(app)/Km(app) for formation of 3-methyl-4-(2-(piperazin-1-yl)phenylthio)benzoic acid per mg of protein after 20 mins by Michaelis-Menten plot analysis in presence of NADPH regenerating system with NADP+; format: ADME, subcellular, Liver S9 fraction; details: s9, 20 min
[10] = molecular target: Liver microsome; assay: Uncompetitive substrate inhibition in pooled human liver microsomes assessed as formation of 3-methyl-4-(2-(piperazin-1-yl)phenylthio)benzoic acid after 20 mins by Michaelis-Menten plot analysis in presence of NADPH regenerating system with NADP+; format: ADME
[11] = Drug metabolism in pooled human liver S9 fractions assessed as formation of 3-methyl-4-(2-(piperazin-1-yl)phenylthio)benzoic acid at 2 to 50 uM after 20 mins by HPLC/MS-MS analysis in presence of NADPH regenerating system with NAD+, aldehyde dehydrogenase inhibitor disulfiram, aldehyde oxidase inhibitor raloxifene and alcohol dehydrogenase inhibitor 4-methylpyrazole; format: ADME, subcellular, Liver S9 fraction; details: s9, 20 min
[12] = test system: Liver microsome; assay: Drug metabolism in phenotyped human liver microsomes assessed as formation of 3-methyl-4-(2-(piperazin-1-yl)phenylthio)benzoic acid at 8 to 50 uM after 15 mins by HPLC/MS-MS analysis in presence of NADPH regenerating system with NADP+; format: ADME; details: 0.25 h
[13] = test system: Liver microsome; assay: Drug level in phenotyped human liver microsomes treated with Lu AA21004 at 8 to 50 uM after 60 mins by HPLC/MS-MS analysis in presence of NADPH regenerating system with NADP+; format: ADME; details: 1 h
[14] = test system: Liver microsome; assay: Drug metabolism in human liver microsomes assessed as formation of 3-methyl-4-(2-(piperazin-1-yl)phenylthio)benzoic acid at 50 uM after 20 mins by HPLC/MS-MS analysis in presence of NADPH regenerating system with NADP+; format: ADME
[15] = test system: Liver microsome; assay: Drug metabolism in human liver microsomes assessed as formation of 3-methyl-4-(2-(piperazin-1-yl)phenylthio)benzoic acid at 50 uM after 20 mins by HPLC/MS-MS analysis in absence of NADPH regenerating system with NADP+; format: ADME
[16] = test system: Liver microsome; assay: Drug level in pooled human liver microsomes treated with Lu AA21004 at 100 uM after 30 to 180 mins by HPLC/MS-MS analysis in presence of NADPH regenerating system with NADP+; format: ADME
[17] = molecular target: T1, Cytochrome P450 2D6 (Homo sapiens, UniProt P10635); assay: Activity of human recombinant CYP2D6 expressed in microsomes isolated from human AHH-1 cells assessed as enzyme-mediated compound formation treated with Lu AA21004 at 8 to 50 uM after 120 mins by HPLC/MS-MS analysis in presence of NADPH regenerating system with NADP+; format: ADME, cell-free; details: 2 h
[18] = molecular target: Cytochrome P450 2C9 (Homo sapiens, UniProt P11712); assay: Activity of human recombinant CYP2C9 expressed in microsomes isolated from human AHH-1 cells assessed as enzyme-mediated compound formation treated with Lu AA21004 at 8 to 50 uM after 120 mins by HPLC/MS-MS analysis in presence of NADPH regenerating system with NADP+; format: ADME, cell-free; details: 2 h
[19] = molecular target: Cytochrome P450 2C19 (Homo sapiens, UniProt P33261); assay: Activity of human recombinant CYP2C19 expressed in microsomes isolated from human AHH-1 cells assessed as enzyme-mediated compound formation treated with Lu AA21004 at 8 to 50 uM after 120 mins by HPLC/MS-MS analysis in presence of NADPH regenerating system with NADP+; format: ADME, cell-free; details: 2 h
[20] = test system: Liver microsome; assay: Drug level in human liver microsomes treated with (3-methyl-4-(2-(piperazin-1-yl)phenylthio)phenyl)methanol at 50 uM after 20 mins by HPLC/MS-MS analysis in presence of NADPH regenerating system with NADP+; format: ADME
[21] = test system: Liver microsome; assay: Drug level in human liver microsomes treated with (3-methyl-4-(2-(piperazin-1-yl)phenylthio)phenyl)methanol at 50 uM after 20 mins by HPLC/MS-MS analysis in absence of NADPH regenerating system with NADP+; format: ADME
[22] = Drug level in human liver S9 fractions treated with (3-methyl-4-(2-(piperazin-1-yl)phenylthio)phenyl)methanol at 8 to 50 uM after 20 mins by HPLC/MS-MS analysis in presence of NADPH regenerating system with NAD+; format: ADME, subcellular, Liver S9 fraction; details: s9, 20 min
[23] = test system: Liver; assay: Drug level in human liver S9 fractions treated with (3-methyl-4-(2-(piperazin-1-yl)phenylthio)phenyl)methanol at 8 to 50 uM after 20 mins by HPLC/MS-MS analysis in absence of NADPH regenerating system with NAD+; format: ADME, tissue-based; details: s9, 20 min
[24] = molecular target: T1, Cytochrome P450 2D6; assay: Activity of human recombinant CYP2D6 expressed in microsomes isolated from human AHH-1 cells assessed as enzyme-mediated compound formation treated with (3-methyl-4-(2-(piperazin-1-yl)phenylthio)phenyl)methanol at 8 to 50 uM after 120 mins by HPLC/MS-MS analysis in presence of NADPH regenerating system with NADP+; format: ADME, cell-free; details: 2 h
[25] = test system: Liver microsome; assay: Drug level in phenotyped human liver microsomes treated with (3-methyl-4-(2-(piperazin-1-yl)phenylthio)phenyl)methanol at 8 to 50 uM after 15 mins by HPLC/MS-MS analysis in presence of NADPH regenerating system with NADP+; format: ADME; details: 0.25 h
[26] = Drug level in pooled human liver S9 fractions treated with (3-methyl-4-(2-(piperazin-1-yl)phenylthio)phenyl)methanol at 2 to 50 uM after 20 mins by HPLC/MS-MS analysis in presence of NADPH regenerating system with NAD+ and xanthine oxidase inhibitor allopurinol; format: ADME, subcellular, Liver S9 fraction; details: s9, 20 min
[27] = molecular target: Cytochrome P450 3A4 (Homo sapiens, UniProt P08684); assay: Activity of human recombinant CYP3A4 expressed in microsomes isolated from human AHH-1 cells assessed as enzyme-mediated compound formation treated with Lu AA21004 at 8 to 50 uM after 120 mins by HPLC/MS-MS analysis in presence of NADPH regenerating system with NADP+; format: ADME, cell-free; details: 2 h
[28] = molecular target: T2, Cytochrome P450 2A6 (Homo sapiens, UniProt P11509); assay: Activity of human recombinant CYP2A6 expressed in microsomes isolated from human AHH-1 cells assessed as enzyme-mediated compound formation treated with Lu AA21004 at 8 to 50 uM after 120 mins by HPLC/MS-MS analysis in presence of NADPH regenerating system with NADP+; format: ADME, cell-free; details: 2 h
T2 sequence (P11509 whole entry): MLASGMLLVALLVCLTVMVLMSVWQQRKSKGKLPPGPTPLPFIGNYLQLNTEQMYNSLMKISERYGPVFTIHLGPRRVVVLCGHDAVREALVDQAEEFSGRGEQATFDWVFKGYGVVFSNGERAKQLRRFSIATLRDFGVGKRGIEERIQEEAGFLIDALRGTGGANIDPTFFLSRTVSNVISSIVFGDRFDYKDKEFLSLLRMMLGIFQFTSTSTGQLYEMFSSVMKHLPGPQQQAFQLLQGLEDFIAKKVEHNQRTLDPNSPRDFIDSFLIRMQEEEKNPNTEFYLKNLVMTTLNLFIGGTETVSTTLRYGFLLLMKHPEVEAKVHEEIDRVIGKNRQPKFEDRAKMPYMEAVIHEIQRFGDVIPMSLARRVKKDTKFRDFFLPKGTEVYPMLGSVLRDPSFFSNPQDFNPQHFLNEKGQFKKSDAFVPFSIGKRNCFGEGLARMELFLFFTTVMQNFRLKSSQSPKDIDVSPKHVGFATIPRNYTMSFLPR

[29] = molecular target: T3, Cytochrome P450 2C8 (Homo sapiens, UniProt P10632); assay: Activity of human recombinant CYP2C8 expressed in microsomes isolated from human AHH-1 cells assessed as enzyme-mediated compound formation treated with Lu AA21004 at 8 to 50 uM after 120 mins by HPLC/MS-MS analysis in presence of NADPH regenerating system with NADP+; format: ADME, cell-free; details: 2 h
T3 sequence (P10632 whole entry): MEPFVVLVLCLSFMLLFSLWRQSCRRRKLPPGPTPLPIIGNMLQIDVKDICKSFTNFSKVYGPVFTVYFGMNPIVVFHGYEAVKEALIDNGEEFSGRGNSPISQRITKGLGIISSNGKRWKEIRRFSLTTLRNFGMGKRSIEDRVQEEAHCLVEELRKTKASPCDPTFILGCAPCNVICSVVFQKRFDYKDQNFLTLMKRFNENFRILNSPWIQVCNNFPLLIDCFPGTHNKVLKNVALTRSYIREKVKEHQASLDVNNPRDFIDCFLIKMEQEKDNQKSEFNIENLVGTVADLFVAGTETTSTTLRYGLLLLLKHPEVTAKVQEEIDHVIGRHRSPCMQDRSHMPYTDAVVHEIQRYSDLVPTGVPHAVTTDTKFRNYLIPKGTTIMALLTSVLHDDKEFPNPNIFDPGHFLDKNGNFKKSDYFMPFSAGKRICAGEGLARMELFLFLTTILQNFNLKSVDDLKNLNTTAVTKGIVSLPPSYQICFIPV

T1 sequence (P10635 whole entry): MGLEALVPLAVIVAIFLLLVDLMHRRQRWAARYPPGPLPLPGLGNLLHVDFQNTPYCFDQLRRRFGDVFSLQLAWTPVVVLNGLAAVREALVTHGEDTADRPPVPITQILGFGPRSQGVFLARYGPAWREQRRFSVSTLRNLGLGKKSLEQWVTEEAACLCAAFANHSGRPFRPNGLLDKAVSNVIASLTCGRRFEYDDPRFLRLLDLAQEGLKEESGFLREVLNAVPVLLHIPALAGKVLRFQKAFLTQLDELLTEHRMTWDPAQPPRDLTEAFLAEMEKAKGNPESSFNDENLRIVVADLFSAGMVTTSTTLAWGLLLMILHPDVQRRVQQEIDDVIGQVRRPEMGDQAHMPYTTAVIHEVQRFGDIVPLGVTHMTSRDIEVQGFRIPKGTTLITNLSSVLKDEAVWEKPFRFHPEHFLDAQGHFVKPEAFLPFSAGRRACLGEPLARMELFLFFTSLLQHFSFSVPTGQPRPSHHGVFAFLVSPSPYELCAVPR
Sequence of Cytochrome P450 2C9 (P11712 whole entry): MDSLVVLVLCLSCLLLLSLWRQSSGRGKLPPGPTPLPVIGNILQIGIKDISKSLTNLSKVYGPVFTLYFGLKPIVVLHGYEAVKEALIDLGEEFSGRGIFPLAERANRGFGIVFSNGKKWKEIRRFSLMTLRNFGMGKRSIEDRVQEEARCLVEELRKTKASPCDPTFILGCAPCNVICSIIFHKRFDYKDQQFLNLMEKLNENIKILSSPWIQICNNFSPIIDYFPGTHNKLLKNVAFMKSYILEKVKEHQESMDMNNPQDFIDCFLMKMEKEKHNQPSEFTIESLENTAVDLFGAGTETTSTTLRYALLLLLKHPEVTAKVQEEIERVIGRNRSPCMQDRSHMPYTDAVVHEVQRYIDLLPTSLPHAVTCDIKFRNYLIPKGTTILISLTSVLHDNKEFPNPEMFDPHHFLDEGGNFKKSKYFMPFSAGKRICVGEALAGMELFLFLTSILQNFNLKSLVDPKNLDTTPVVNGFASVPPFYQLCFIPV
Sequence of Cytochrome P450 2C19 (P33261 whole entry): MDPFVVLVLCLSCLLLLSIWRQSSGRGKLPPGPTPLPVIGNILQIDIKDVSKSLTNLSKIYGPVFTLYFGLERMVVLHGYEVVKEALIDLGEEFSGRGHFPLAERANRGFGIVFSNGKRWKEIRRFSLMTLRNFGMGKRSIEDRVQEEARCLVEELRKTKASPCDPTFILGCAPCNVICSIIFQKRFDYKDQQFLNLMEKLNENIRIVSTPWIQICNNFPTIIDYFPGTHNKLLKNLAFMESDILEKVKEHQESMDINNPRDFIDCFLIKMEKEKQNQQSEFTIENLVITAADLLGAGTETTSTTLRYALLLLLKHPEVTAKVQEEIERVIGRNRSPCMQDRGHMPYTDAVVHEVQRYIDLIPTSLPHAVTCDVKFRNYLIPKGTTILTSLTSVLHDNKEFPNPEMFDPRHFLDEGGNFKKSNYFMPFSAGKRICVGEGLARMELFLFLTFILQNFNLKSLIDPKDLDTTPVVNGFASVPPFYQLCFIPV
Sequence of Cytochrome P450 3A4 (P08684 whole entry): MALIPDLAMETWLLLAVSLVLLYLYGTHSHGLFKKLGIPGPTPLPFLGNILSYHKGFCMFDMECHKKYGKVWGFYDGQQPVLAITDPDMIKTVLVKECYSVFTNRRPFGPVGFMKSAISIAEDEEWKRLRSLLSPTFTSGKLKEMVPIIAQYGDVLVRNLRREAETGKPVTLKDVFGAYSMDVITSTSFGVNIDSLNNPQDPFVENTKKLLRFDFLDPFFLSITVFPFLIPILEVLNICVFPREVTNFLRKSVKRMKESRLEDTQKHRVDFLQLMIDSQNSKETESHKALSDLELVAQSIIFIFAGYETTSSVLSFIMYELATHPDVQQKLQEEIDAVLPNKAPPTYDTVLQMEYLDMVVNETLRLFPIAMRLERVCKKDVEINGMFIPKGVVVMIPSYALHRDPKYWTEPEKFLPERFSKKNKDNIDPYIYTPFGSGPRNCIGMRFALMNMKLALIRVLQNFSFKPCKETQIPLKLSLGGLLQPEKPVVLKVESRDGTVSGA

SMILES: Cc1cc(CO)ccc1Sc1ccccc1N1CCNCC1
- Drug metabolism [1]: metabolite_detected
- Drug metabolism [2]: metabolite_detected
- Drug metabolism [3]: metabolite_detected
- Km [4]: 95 µM
- Vmax(app) [5]: 59 pmol/min
- Vmax/Km [6]: 0.621 µL/min
- Km [7]: 1.7 µM
- Vmax(app) [8]: 1567 pmol/min
- Vmax/Km [9]: 922 µL/min
- Ki [10]: 275 µM
- Drug metabolism [11]: metabolite_not_detected
- Drug metabolism [12]: metabolite_detected
- Drug metabolism [13]: metabolite_detected
- Drug metabolism [14]: metabolite_detected
- Drug metabolism [15]: metabolite_detected
- Drug metabolism [16]: metabolite_detected
- Drug metabolism [17]: metabolite_detected
- Drug metabolism [18]: metabolite_detected
- Drug metabolism [19]: metabolite_detected

SMILES: Cc1cc(C(=O)O)ccc1Sc1ccccc1N1CCNCC1
- Drug metabolism [20]: metabolite_detected
- Drug metabolism [21]: metabolite_detected
- Drug metabolism [22]: metabolite_detected
- Drug metabolism [23]: metabolite_detected
- Drug metabolism [24]: metabolite_detected
- Drug metabolism [25]: metabolite_detected
- Drug metabolism [26]: metabolite_detected
- Drug metabolism [13]: metabolite_detected
- Drug metabolism [16]: metabolite_detected
- Drug metabolism [17]: metabolite_detected

SMILES: Cc1ccc([S+]([O-])c2ccccc2N2CCNCC2)c(C)c1.O=C(O)/C=C/C(=O)O (centres undefined)
- Drug metabolism [27]: metabolite_detected
- Drug metabolism [28]: metabolite_detected
- Drug metabolism [29]: metabolite_detected
- Drug metabolism [13]: metabolite_detected
- Drug metabolism [16]: metabolite_detected

SMILES: Cc1ccc(Sc2cc([O-])ccc2N2CCNCC2)c(C)c1.[Na+]
- Drug metabolism [13]: metabolite_detected
- Drug metabolism [16]: metabolite_detected
- Drug metabolism [17]: metabolite_detected
- Drug metabolism [18]: metabolite_detected
- Drug metabolism [19]: metabolite_detected
